From patent US20050020616A1, “Aryl fused azapolycyclic compounds” (Pfizer Inc, priority 2003, published 2005) come the findings set out here.

Structures can show the parent of a compound that is named as a salt.

The melting point is the temperature, or range, at which the solid turns liquid.

As to `O=[N+]([O-])c1ccc2c(c1)C1CCC2CNC1` (stereo not shown) (as salt: hydrochloride), the melting point stood at 252 °C.
